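Method: 48-hour compound exposure of cells in 96-well plates, five concentrations, linear interpolation of endpoints. TGI denotes the concentration required for complete inhibition of growth.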

Assay in all cases: growth of human tumour cells (NCI), 48 h
The subject of assay [1] is OVCAR-5 ovarian.
Assay [2] has as its system OVCAR-3 ovarian.
For assay [3], the system named is RXF 393 renal.
In assay [4] the test system is OVCAR-4 ovarian.
For assay [5], the system named is MOLT-4 leukemia.
Assay [6] concerns COLO 205 colon.
Assay [7] relates to TK-10 renal.
The test system of assay [8] is HCT-116 colon.
Assay [9] relates to A549 NSCLC.
Assay [10] concerns CAKI-1 renal.
Assay [11] relates to PC-3 prostate.
Assay [12] deals with SNB-19 CNS.
In assay [13] the test system is DU-145 prostate.
Assay [14] has as its system KM12 colon.
Assay [15] has as its system HOP-92 NSCLC.
The subject of assay [16] is SK-MEL-2 melanoma.
Assay [17] relates to SW-620 colon.
In assay [18] the test system is M14 melanoma.
The subject of assay [19] is LOX IMVI melanoma.

In the case of `Cc1ccc(S(=O)(=O)NC(=O)NCC(=O)NCC(=O)O)cc1`, the TGI in [1], in [2], in assay [3], in assay [4], in assay [5] and in assay [6] was greater than 100 µM in each case. Besides, the TGI in assay [7], in assay [8], in assay [9], in assay [10], in assay [11] and in assay [12] was greater than 100 µM in each case. Moreover, the TGI in assay [13], in assay [14], in [15], in assay [16], in [17] and in assay [18] was greater than 100 µM throughout. In assay [19], this molecule displayed a TGI greater than 100 µM.
Regarding `CCC(CC)C(=O)OC[n+]1cccc(-c2c(COC(=O)NC(C)C)c(COC(=O)NC(C)C)c3n2CCC3)c1`, the TGI in assay [1], in assay [2], in assay [3], in assay [4], in assay [5] and in assay [6] was greater than 100 µM each time. The TGI in [7], in assay [8], in assay [9], in assay [10], in [11] and in assay [12] was greater than 100 µM in each case. In addition, the TGI in [13], in assay [14], in assay [15], in [16], in [17] and in assay [18] was greater than 100 µM each time. This molecule also had a TGI in [19] greater than 100 µM.
With `O=C1Nc2ccccc2[C@]12C[C@H]2c1ccccn1`, the TGI in assay [1], in assay [2], in assay [3], in assay [4], in assay [5] and in [6] was greater than 100 µM each time. Moreover, the TGI in assay [7], in assay [8], in assay [9], in [10], in assay [11] and in assay [12] was greater than 100 µM each time. For the same molecule, the TGI in [13], in assay [14], in assay [15], in assay [16], in assay [17] and in assay [18] was greater than 100 µM throughout. Besides, in [19], the TGI was greater than 100 µM.
Consider `CS(=O)(=O)c1[nH]nc2[nH]c(=O)[nH]c(=O)c12`, for which the TGI in assay [1], in [2], in assay [3], in [4], in [5] and in assay [6] was greater than 10 µM each time. The TGI in assay [7], in [8], in assay [9], in [10], in assay [11] and in [12] was greater than 10 µM each time. Moreover, the TGI in [13], in assay [14], in assay [15], in assay [16], in [17] and in assay [18] was greater than 10 µM each time. For the same molecule, in assay [19], the TGI was greater than 10 µM.
As to `COc1ccc2nc3cc([N+](=O)[O-])ccc3c(NNc3ccc(Cl)cc3)c2c1`, the TGI in [1] is greater than 100 µM; in assay [2], greater than 20.5 µM; in [3], greater than 83.4 µM; in [4], greater than 100 µM; in [5], greater than 92.4 µM; in [6], 60.8 µM. The TGI is 5.16 µM in [7]; greater than 55.7 µM in assay [8]; greater than 85 µM in [9]; 2.26 µM in [10]; greater than 77.5 µM in assay [11]; greater than 100 µM in assay [12]. Further, the TGI in [13] is greater than 96.5 µM; in [14], greater than 100 µM; in assay [15], 57.9 µM; in [16], 59.4 µM; in [17], greater than 76.3 µM; in assay [18] it was greater than 92.5 µM. Besides, in assay [19], the TGI is greater than 100 µM.
`COC(=O)/C(C#N)=C1\NC(=O)CC(c2ccccc2)C1C#N` (stereo unspecified): the TGI in assay [1], in assay [2], in assay [3], in assay [4], in [5] and in [6] was greater than 100 µM in each case. Also, the TGI in [7], in assay [8], in [9], in assay [10], in assay [11] and in assay [12] was greater than 100 µM each time. The TGI in [13], in assay [14], in assay [15], in assay [16], in assay [17] and in assay [18] was greater than 100 µM throughout. In [19], the TGI is greater than 100 µM.
For `CC1(C)C=[N+]([O-])C(C)(C)N1`, the TGI in [1], in assay [2], in assay [3], in assay [4], in assay [5] and in [6] was greater than 100 µM in each case. For the same molecule, the TGI in assay [7], in assay [8], in [9], in [10], in assay [11] and in [12] was greater than 100 µM throughout. Besides, the TGI in [13], in assay [14], in [15], in assay [16], in assay [17] and in assay [18] was greater than 100 µM throughout. The molecule also returned a TGI in assay [19] greater than 100 µM.
Turning to `Cn1c2ccccc2c(=O)c2c(O)cc3c(c21)C=CC1(CCCC1)O3`, the TGI in [1], in [2], in assay [3], in assay [4], in assay [5] and in assay [6] was greater than 100 µM each time. Besides, the TGI in [7], in assay [8], in assay [9], in assay [10], in [11] and in [12] was greater than 100 µM each time. In addition, the TGI in assay [13], in assay [14], in assay [15], in assay [16], in [17] and in assay [18] was greater than 100 µM throughout. For the same molecule, the TGI in assay [19] was greater than 100 µM.
Turning to `Cc1ccc(S(=O)(=O)[N-]C2C(=O)c3ccccc3C(=O)C2[n+]2cccc(C(N)=O)c2)cc1` (stereo unspecified), the TGI is greater than 100 µM in assay [1]; greater than 100 µM in [2]; greater than 100 µM in assay [3]; greater than 100 µM in assay [4]; greater than 100 µM in [5]; 59.4 µM in assay [6]. Moreover, the TGI in assay [7] was greater than 100 µM; in assay [8], 36 µM; in assay [9] it was greater than 100 µM; in assay [10], greater than 100 µM; in assay [11], greater than 100 µM; in assay [12], greater than 100 µM. Further, the TGI in assay [13], in [14], in [15], in assay [16], in assay [17] and in assay [18] was greater than 100 µM each time. The molecule further gave a TGI in assay [19] greater than 100 µM.
As to `COC(C/C(=C/CO[Si](C(C)C)(C(C)C)C(C)C)C(=O)Nc1ccccc1I)OC`, the TGI in assay [1] was 70 µM; in assay [2], 51.8 µM; in assay [3] it was 27.1 µM; in assay [4], greater than 100 µM; in assay [5], greater than 100 µM; in assay [6], greater than 100 µM. Also, the TGI in [7] was greater than 100 µM; in assay [8], 39.8 µM; in assay [9], greater than 100 µM; in assay [10] it was greater than 100 µM; in [11] it was 62.2 µM; in assay [12], 42.5 µM. Further, the TGI in assay [13] was greater than 100 µM; in [14] it was greater than 100 µM; in assay [15] it was 61.7 µM; in assay [16], 31.1 µM; in [17], greater than 100 µM; in assay [18], greater than 100 µM. The molecule further gave a TGI in [19] of 45.5 µM.
With `COc1ccc2c(c1)N(C(C)=O)CN1C(=O)CCC21` (stereo unspecified), the TGI in assay [1], in assay [2], in assay [3], in assay [4], in assay [5] and in assay [6] was greater than 100 µM each time. The TGI in [7], in assay [8], in assay [9], in [10], in assay [11] and in assay [12] was greater than 100 µM throughout. The TGI in [13], in assay [14], in [15], in [16], in assay [17] and in assay [18] was greater than 100 µM in each case. For the same molecule, the TGI in assay [19] is greater than 100 µM.
Turning to `CC(=O)OCC1OC(n2c3c(c(-c4ccc(Cl)cc4)c(C#N)c2=S)C(=O)CC(C)(C)C3)C(OC(C)=O)C(OC(C)=O)C1OC(C)=O` (stereo unspecified), the TGI in assay [1] is greater than 100 µM; in assay [2], greater than 74 µM; in [3], 68.8 µM; in [4] it was greater than 100 µM; in assay [5] it was greater than 100 µM; in [6] it was greater than 62.8 µM. Besides, the TGI is greater than 100 µM in [7]; greater than 100 µM in assay [8]; greater than 100 µM in [9]; greater than 31.9 µM in assay [10]; 63.6 µM in assay [11]; greater than 86.8 µM in assay [12]. Moreover, the TGI in assay [13] is greater than 100 µM; in assay [14], greater than 77.4 µM; in [15] it was greater than 100 µM; in assay [16], 46.4 µM; in assay [17], greater than 100 µM; in assay [18], greater than 100 µM. Also, the TGI in assay [19] stood at 29.8 µM.
`CC(C)C[C@H](NC(=O)CCc1ccccc1)B(O)O`: the TGI is 40.2 µM in [1]; 17.4 µM in [2]; 19.1 µM in assay [3]; greater than 100 µM in assay [4]; 11.4 µM in assay [5]; 75.3 µM in assay [6]. The TGI in [7] was 55.8 µM; in assay [8], 18.6 µM; in [9], greater than 100 µM; in assay [10] it was 25.2 µM; in assay [11], greater than 100 µM; in assay [12], greater than 100 µM. Also, the TGI is greater than 100 µM in [13]; 32.8 µM in assay [14]; 65.1 µM in assay [15]; 39.4 µM in [16]; 19.1 µM in assay [17]; 24.7 µM in [18]. In assay [19], this molecule had a TGI of 16.7 µM.
For the molecule `CC1=CCC[C@@](C)(O)[C@@H]2C[C@H]3C(CSc4ccccc4)C(=O)O[C@H]3[C@@H](O2)[C@H](C)CCC1` (stereo partly specified), the TGI was 30.7 µM in [1]; 26.5 µM in assay [2]; 30.4 µM in assay [3]; 45 µM in [4]; greater than 100 µM in [5]; 40.4 µM in assay [6]. In addition, the TGI is 33.5 µM in [7]; greater than 100 µM in assay [8]; 27.1 µM in assay [9]; 64.6 µM in [10]; 22.2 µM in [11]; 26.7 µM in assay [12]. For the same molecule, the TGI was 76.6 µM in assay [13]; 22.6 µM in assay [14]; greater than 100 µM in [15]; 32.3 µM in assay [16]; 93.2 µM in assay [17]; 26.9 µM in assay [18]. Also, in [19], the TGI is 81.6 µM.

For the origin of these results see PubChem BioAssay (NCI).
